What all share (test): NCI-60 cell line screen, 48 h
Assay [1] has as its system CAKI-1.
Assay [2] relates to HCC 2998.
The subject of assay [3] is HCT-15.
Assay [4] deals with HL-60.
For assay [5], the system named is HOP-62.
The test system of assay [6] is HT-29.
For assay [7], the system named is IGROV-1.
For assay [8], the system named is Malme-3M.
In assay [9] the test system is OVCAR-3.
Assay [10] concerns OVCAR-4.
Assay [11] has as its system OVCAR-5.
For assay [12], the system named is OVCAR-8.
The subject of assay [13] is RXF 393.
Assay [14] has as its system SF-295.
The test system of assay [15] is SK-MEL-28.
Assay [16] relates to SK-MEL-2.
Assay [17] has as its system SK-MEL-5.
The test system of assay [18] is SN12C.
The test system of assay [19] is SNB-19.
For assay [20], the system named is UO-31.

Here are results for five compounds from ChEMBL document CHEMBL1201862, “PubChem BioAssay data set” (2004).

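Step 1: Grow cells in 96-well plates. Step 2: Expose to compound for 48 hours at 5 concentrations. Step 3: Interpolate endpoints linearly; if unreached, use highest concentration. Here, GI50 denotes the concentration required for 50% inhibition of growth.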 Calls of active or inactive are those of the source. No stated cut-off is given here; in the data, active = GI50 up to about 1.1 µM and inactive = higher. Where only a bound is given, the exact number is not on record here.

As to `CC[N+]1(C)CCC(O)(c2ccccc2)C(C(=O)c2ccccc2)C1` (stereo not given), the GI50 is 4.14 µM (inactive) in [1]; 34 µM (inactive) in assay [2]; 9.73 µM in assay [3]; 4.27 µM (inactive) in [4]; 22 µM (inactive) in assay [5]; 12.5 µM (inactive) in assay [6]. Also, the GI50 in [7] is 19.8 µM (inactive); in [8] it was 16.7 µM (inactive); in [9], 19.3 µM (inactive); in assay [10], 11.8 µM (inactive); in assay [11], 17.9 µM (inactive); in [12], 25.8 µM (inactive). Further, the GI50 in assay [13] is 12.4 µM (inactive); in assay [14], 19 µM (inactive); in assay [15], 15.2 µM (inactive); in assay [16], 18.7 µM (inactive); in assay [17], 18.6 µM (inactive); in [18], 11.6 µM (inactive). In addition, the values for the GI50 in assay [19] and in [20] were 15.5 µM (inactive) and 18.7 µM (inactive), respectively.
With `C[C@H](N)C(=O)N[C@@H]1[C@H]2C(=C(O)C[C@@H](O)[C@@H]2O)C(=O)O[C@@H]1C`, the GI50 in [1] is > 100 µM (inactive); in assay [2], > 100 µM (inactive); in assay [3] it was more than 100 µM; in [4], > 80.4 µM (inactive); in assay [5] it was > 100 µM (inactive); in assay [6], > 100 µM (inactive). Besides, the GI50 in assay [7], in [8], in [9], in assay [10], in assay [11] and in [12] was > 100 µM (inactive) each time. Moreover, the GI50 in assay [13], in [14], in [15], in [16], in [17] and in assay [18] was > 100 µM (inactive) each time. The GI50 is 77.4 µM (inactive) in assay [19] and > 100 µM (inactive) in assay [20].
With `C#CCNC(=O)CCC(N)C(=O)O` (stereo not given), the GI50 is > 100 µM (inactive) in assay [1]; > 100 µM (inactive) in assay [2]; more than 100 µM in assay [3]; > 100 µM (inactive) in assay [4]; > 100 µM (inactive) in assay [5]; > 100 µM (inactive) in [6]. In addition, the GI50 in assay [7], in assay [8], in assay [9], in [10], in [11] and in assay [12] was > 100 µM (inactive) each time. The GI50 in [13], in [14], in assay [15], in [16], in [17] and in [18] was > 100 µM (inactive) in each case. For the same compound, the GI50 in assay [19] and in [20] was > 100 µM (inactive) throughout.
On to `CN(C)/N=C(/CC(O)(C(F)(F)F)C(F)(F)F)c1ccc([N+](=O)[O-])cc1`, for which the GI50 in [1] is > 100 µM (inactive); in assay [2], > 100 µM (inactive); in assay [3], more than 100 µM; in assay [4], > 100 µM (inactive); in assay [5], > 100 µM (inactive); in assay [6], > 100 µM (inactive). Further, the GI50 was 80.5 µM (inactive) in [7]; > 100 µM (inactive) in assay [8]; > 100 µM (inactive) in assay [9]; > 100 µM (inactive) in [10]; > 100 µM (inactive) in assay [11]; > 100 µM (inactive) in assay [12]. For the same compound, the GI50 in [13], in assay [14], in assay [15], in assay [16], in assay [17] and in assay [18] was > 100 µM (inactive) throughout. The GI50 is > 100 µM (inactive) in [19] and 98.6 µM (inactive) in [20].
`c1ccc(P2c3ccccc3Nc3ccccc32)cc1`: the GI50 in assay [1] is 23.5 µM (inactive); in [2], > 100 µM (inactive); in assay [3], more than 100 µM; in assay [4], 29.1 µM (inactive); in [5] it was 64.9 µM (inactive); in assay [6], 49 µM (inactive). Moreover, the GI50 is 71 µM (inactive) in assay [7]; 49.3 µM (inactive) in assay [8]; 16.3 µM (inactive) in assay [9]; 38.8 µM (inactive) in assay [10]; > 100 µM (inactive) in assay [11]; > 100 µM (inactive) in assay [12]. Besides, the GI50 is 29.5 µM (inactive) in assay [13]; 59.7 µM (inactive) in [14]; > 100 µM (inactive) in [15]; 36 µM (inactive) in assay [16]; 30.8 µM (inactive) in [17]; 41.1 µM (inactive) in [18]. In addition, the GI50 is 59 µM (inactive) in [19] and > 100 µM (inactive) in assay [20].
